Data on 7 compounds can be found in patent US6890947B2, “Indolyl derivatives” (Hoffmann-La Roche Inc., priority 2002, dated 2005).

SMILES strings stand for the structures. pEC50, pIC50: −log10 of the molar value.

A word on the pEC50: it is the negative decadic logarithm of the EC50, by convention in mol/L. Low readings indicate a large EC50, high ones a small EC50. One may read the pIC50 as the IC50 on a negative log10 scale, so that one unit is a factor of ten. Read a low pIC50 as a high IC50.

Test [1] has as its target T1, human PPARα (Homo sapiens, UniProt Q07869).
T1 sequence (Q07869 167-468 limits assumed): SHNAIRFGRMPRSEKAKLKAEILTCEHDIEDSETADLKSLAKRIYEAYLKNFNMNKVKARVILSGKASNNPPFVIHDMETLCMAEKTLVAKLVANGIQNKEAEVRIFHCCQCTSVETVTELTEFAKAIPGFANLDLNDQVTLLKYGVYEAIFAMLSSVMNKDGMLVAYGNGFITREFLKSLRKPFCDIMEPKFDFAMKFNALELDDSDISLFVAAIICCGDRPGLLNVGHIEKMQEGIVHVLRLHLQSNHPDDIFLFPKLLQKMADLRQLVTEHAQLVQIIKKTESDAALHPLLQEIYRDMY
The test is described as follows: Luciferase transcriptional reporter gene assay, pFA-PPARα-LBD in BHK21 cells. To be noted: Gal4-PPARα-LBD. Format: cell-based. The text has this:
(§1) Full-length cDNA clones for human PPARα and mouse PPARγ were obtained by RT-PCR from human adipose and mouse liver cRNA, respectively, cloned into plasmid vectors and verified by DNA sequencing. […] To accomplish this, the portions of the cloned sequences encoding the LBDs were amplified from the full-length clones by PCR and then subcloned into the plasmid vectors. Final clones were verified by DNA sequence analysis.
(§2) Luciferase Transcriptional Reporter Gene Assays
(§3) Baby hamster kidney cells (BHK21 ATCC CCL10) were grown in DMEM medium containing 10% FBS at 37° C. in a […] atmosphere. Cells were seeded in 6 well plates at a density of 10^5 Cells/well and then transiently batch-transfected with either the pFA-PPARγ-LBD or pFA-PPARα-LBD expression plasmids plus the pFR-luc reporter plasmid and an expression plasmid encoding the secretable form of alkaline phosphatase (SEAP) as a normalization control. […] Six hours following transfection, the cells were harvested by trypsinization and seeded in 96 well plates at a density of 10^4 cells/well. After 24 hours to allow attachment of cells, the medium was removed and replaced with 100 ul of phenol red-free medium containing the test substances or control ligands (final. 0.1% DMSO). Following incubation of the cells for 24 hours with substances, 50 ul of the supernatant was recovered and analyzed for SEAP activity (Roche Molecular Biochemicals). The remainder of the supernatant was discarded, 50 ul PBS was added per well followed by one volume of Luciferase Constant-Light Reagent (Roche Molecular Biochemicals) to lyse the cells and initiate the luciferase reaction. Luminescence for both SEAP and luciferase was measured in a Packard TopCount. Luciferase activity was normalized to the SEAP control and transcriptional activation in the presence of a test substance was expressed as fold-activation over cells incubated in the absence of the substance. EC50 values were calculated using the XLfit program (ID Business Solutions Ltd. UK).

Test [2] deals with T1, human PPARα. The test is described as follows: PPARα radioligand binding assay (GST-PPARα-LBD fusion protein). Also on record: made in house; host or cells: E. coli BL21(pLysS).
Source text: as §1
(§4) Induction, expression, and purification of GST-LBD fusion proteins were performed in E. coli strain BL21(pLysS) cells by standard methods (Ref: Current Protocols in Molecular Biology, Wiley Press, edited by Ausubel et al.).
(§5) Radioligand Binding Assay
PPARα receptor binding was assayed in TKE10 (10 mM Tris-HCl, pH 8, 50 mM KCl, 2 mM EDTA, […] fatty acid free BSA and 10 mM DTT). For each 96 well 2.4 ug equivalent of GST-PPARα-LBD fusion protein and radioligand, e.g. 40000 dpm 2(S)-(2-benzoyl-phenylamino)-3-{4-[1,1-ditritio-2-(5-methyl-2-phenyl-oxazol-4-yl)-ethoxy]-phenyl}-propionic acid, were incubated in 100 ul volume at RT for 2 hrs. Bound ligand was removed from unbound ligand by solid phase separation using MultiScreen plates (Millipore) filled with 80 ul of SG25 according to the manufacturer's recommendations.
(§6) PPARγ receptor binding was assayed in TKE50 (50 mM Tris-HCl, pH 8, 50 mM KCl, […], 0.1 mg/ml fatty acid-free […] and 10 mM DTT). For each 96 well reaction an 140 ng equivalent of GST-PPARγ-LBD fusion protein was bound to 10 ug SPA beads (PharmaciaAmersham) in a final volume of 50 ul by shaking. The resulting slurry was incubated for 1 h at RT and centrifuged for 2 min at 1300 g. The supernatant containing unbound protein was removed and the semidry pellet containing the recptor-coated beads was resolved in 50 ul of TKE. For radioligand binding e.g. 10000 dpm 2(S)-(2-benzoyl-phenylamino)-3-{4-[1, 1-ditritio-2-(5-methyl-2-phenyl-oxazol-4-yl)-ethoxy]-phenyl}-propionic acid in 50 ul were added, the reaction incubated at RT for 1h and scintillation proximity counting performed. All binding assays were performed in 96 well plates and the amount of bound ligand measured on a Packard TopCount using OptiPlates (Packard). Nonspecific binding was determined in the presence of 10^−4 M unlabelled compound. Dose response curves were done in triplicates within a range of concentration from 10^−10 M to 10^−4 M.

Test [3] concerns the target T2, mouse PPARγ (Mus musculus, UniProt P37238).
T2 sequence (P37238 204-505): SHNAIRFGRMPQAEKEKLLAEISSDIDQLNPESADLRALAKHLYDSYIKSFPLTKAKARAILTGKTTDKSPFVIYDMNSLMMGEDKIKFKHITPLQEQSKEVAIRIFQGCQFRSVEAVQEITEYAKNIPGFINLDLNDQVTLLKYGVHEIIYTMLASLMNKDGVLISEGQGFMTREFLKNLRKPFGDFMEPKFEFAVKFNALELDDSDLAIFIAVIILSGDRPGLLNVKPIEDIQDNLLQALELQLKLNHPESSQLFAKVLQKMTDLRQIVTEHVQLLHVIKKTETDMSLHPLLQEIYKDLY
The test is described as follows: Luciferase transcriptional reporter gene assay, pFA-PPARγ-LBD in BHK21 cells. Format: cell-based. Also on record: expressed in transfected cells; host or cells: BHK21 (ATCC CCL10). Conditions: Gal4-PPARγ-LBD.
Source text: as §1, §2, §3
(A reporter such as luciferase makes a cellular process visible.)

The target in test [4] is T2, mouse PPARγ. Description: PPARγ radioligand binding assay (GST-PPARγ-LBD fusion protein, scintillation proximity). Conditions: SPA.
Source text: as §1, §4, §5, §6

`CCOC(Cc1ccc2c(c1)c(C)cn2Cc1nc(-c2ccc(F)c(C)c2)oc1C)C(=O)O` (racemic) [Example 39, Rac-2-Ethoxy-3-{1-[2-(4-fluoro-3-methyl-phenyl)-5-methyl-oxazol-4-ylmethyl]-3-methyl-1H-indol-5-yl}-propionic Acid]: the results for the pEC50 on human PPARα [1] and at mouse PPARγ [3] were 6.33 and 7.70, respectively. The pIC50 on human PPARα [2] was 7.22; on mouse PPARγ [4], 6.96.
For `CCOC(Cc1ccc2c(c1)cc(C)n2Cc1csc(-c2ccccc2)n1)C(=O)O` (racemic) [Example 44, Rac-2-Ethoxy-3-[2-methyl-1-(2-phenyl-thiazol-4-ylmethyl)-1H-indol-5-yl]-propionic Acid], the pEC50 was 5.28 at human PPARα [1] and 5.57 at mouse PPARγ [3]. Also, the figures for the negative logarithm of the IC50 (pIC50) at human PPARα [2] and on mouse PPARγ [4] were 5.79 and 5.85, respectively.
`CCO[C@@H](Cc1ccc2c(ccn2Cc2nc(-c3ccccc3Cl)oc2C)c1)C(=O)O` [Example 5, (S)-3-{1-[2-(2-Chloro-phenyl)-5-methyl-oxazol-4-ylmethyl]-1H-indol-5-yl}-2-ethoxy-propionic Acid] showed a pEC50 on human PPARα [1] of 5.82. Further, on human PPARα [2], the pIC50 was 6.62.
Turning to `CCO[C@@H](Cc1ccc2c(ccn2Cc2nc(-c3ccccc3OC)oc2C)c1)C(=O)O` [Example 8, (S)-2-Ethoxy-3-{1-[2-(2-methoxy-phenyl)-5-methyl-oxazol-4-ylmethyl]-1H-indol-5-yl}-propionic Acid], the pEC50 on human PPARα [1] was 6.72; at mouse PPARγ [3], 6.25. Besides, the negative-log IC50 (pIC50) on human PPARα [2] is 6.55; on mouse PPARγ [4], 6.40.
For `CCO[C@@H](Cc1ccc2c(ccn2Cc2nc(-c3ccc(C(F)(F)F)cc3)oc2C)c1)C(=O)O` [Example 18, (S)-2-Ethoxy-3-{1-[5-methyl-2-(4-trifluoromethyl-phenyl)-oxazol-4-ylmethyl]-1H-indol-5-yl}-propionic Acid], in that order: 7.10, 6.89, 7.52 and 6.74.
Compound `CCO[C@@H](Cc1ccc2c(ccn2Cc2nc(-c3cc(OC)cc(OC)c3)oc2C)c1)C(=O)O` [Example 21, (S)-3-{1-[2-(3,5-Dimethoxy-phenyl)-5-methyl-oxazol-4-ylmethyl]-1H-indol-5-yl}-2-ethoxy-propionic Acid] gave a negative logarithm of the EC50 (pEC50) on human PPARα [1] of 7.52. At human PPARα [2], this compound gave a negative logarithm of the IC50 (pIC50) of 7.52.
For the compound `CCO[C@@H](Cc1ccc2c(ccn2Cc2nc(-c3ccc(F)c(C)c3)oc2C)c1)C(=O)O` [Example 25, (S)-2-Ethoxy-3-{1-[2-(4-fluoro-3-methyl-phenyl)-5-methyl-oxazol-4-ylmethyl]-1H-indol-5-yl}-propionic Acid], the pEC50 was 7.22 on human PPARα [1] and 7.30 on mouse PPARγ [3]. Besides, the pIC50 on human PPARα [2] was 6.92; on mouse PPARγ [4], 7.30.
